Our source for the Kd values is ChEMBL document CHEMBL3991601, “The target landscape of clinical kinase drugs” (Science, 2017).

pKd: −log10 of the molar value. Activity calls are given as the source filed them. For most assays here, no stated cut-off is given here; in the data, actives have a measured Kd and inactives only a lower limit.

In assay [1] the target is T1, Acyl-CoA dehydrogenase family member 11 (Homo sapiens, UniProt Q709F0).
T1 sequence (Q709F0 whole entry): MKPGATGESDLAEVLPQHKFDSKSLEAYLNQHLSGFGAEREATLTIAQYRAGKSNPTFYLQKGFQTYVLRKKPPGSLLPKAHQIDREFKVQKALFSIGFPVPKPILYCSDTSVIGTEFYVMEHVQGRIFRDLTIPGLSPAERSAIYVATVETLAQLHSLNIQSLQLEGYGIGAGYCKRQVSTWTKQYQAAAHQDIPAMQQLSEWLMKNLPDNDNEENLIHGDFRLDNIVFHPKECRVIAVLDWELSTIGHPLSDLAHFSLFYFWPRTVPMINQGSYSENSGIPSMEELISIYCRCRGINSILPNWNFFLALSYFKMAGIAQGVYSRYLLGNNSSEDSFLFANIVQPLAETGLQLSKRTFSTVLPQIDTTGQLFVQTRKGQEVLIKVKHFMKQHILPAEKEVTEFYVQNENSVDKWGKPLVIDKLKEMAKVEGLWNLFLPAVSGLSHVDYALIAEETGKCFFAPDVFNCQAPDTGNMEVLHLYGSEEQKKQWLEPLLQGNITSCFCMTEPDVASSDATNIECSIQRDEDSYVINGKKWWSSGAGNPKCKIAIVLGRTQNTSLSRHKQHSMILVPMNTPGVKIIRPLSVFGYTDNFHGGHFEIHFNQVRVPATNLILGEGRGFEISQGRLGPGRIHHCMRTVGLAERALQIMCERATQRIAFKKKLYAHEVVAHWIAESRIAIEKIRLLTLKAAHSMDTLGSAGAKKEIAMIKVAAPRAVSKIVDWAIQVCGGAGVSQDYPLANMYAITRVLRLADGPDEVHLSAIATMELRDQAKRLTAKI

The target of assay [2] is T2, Cyclin-G-associated kinase (Homo sapiens, UniProt O14976).
T2 sequence (O14976 whole entry): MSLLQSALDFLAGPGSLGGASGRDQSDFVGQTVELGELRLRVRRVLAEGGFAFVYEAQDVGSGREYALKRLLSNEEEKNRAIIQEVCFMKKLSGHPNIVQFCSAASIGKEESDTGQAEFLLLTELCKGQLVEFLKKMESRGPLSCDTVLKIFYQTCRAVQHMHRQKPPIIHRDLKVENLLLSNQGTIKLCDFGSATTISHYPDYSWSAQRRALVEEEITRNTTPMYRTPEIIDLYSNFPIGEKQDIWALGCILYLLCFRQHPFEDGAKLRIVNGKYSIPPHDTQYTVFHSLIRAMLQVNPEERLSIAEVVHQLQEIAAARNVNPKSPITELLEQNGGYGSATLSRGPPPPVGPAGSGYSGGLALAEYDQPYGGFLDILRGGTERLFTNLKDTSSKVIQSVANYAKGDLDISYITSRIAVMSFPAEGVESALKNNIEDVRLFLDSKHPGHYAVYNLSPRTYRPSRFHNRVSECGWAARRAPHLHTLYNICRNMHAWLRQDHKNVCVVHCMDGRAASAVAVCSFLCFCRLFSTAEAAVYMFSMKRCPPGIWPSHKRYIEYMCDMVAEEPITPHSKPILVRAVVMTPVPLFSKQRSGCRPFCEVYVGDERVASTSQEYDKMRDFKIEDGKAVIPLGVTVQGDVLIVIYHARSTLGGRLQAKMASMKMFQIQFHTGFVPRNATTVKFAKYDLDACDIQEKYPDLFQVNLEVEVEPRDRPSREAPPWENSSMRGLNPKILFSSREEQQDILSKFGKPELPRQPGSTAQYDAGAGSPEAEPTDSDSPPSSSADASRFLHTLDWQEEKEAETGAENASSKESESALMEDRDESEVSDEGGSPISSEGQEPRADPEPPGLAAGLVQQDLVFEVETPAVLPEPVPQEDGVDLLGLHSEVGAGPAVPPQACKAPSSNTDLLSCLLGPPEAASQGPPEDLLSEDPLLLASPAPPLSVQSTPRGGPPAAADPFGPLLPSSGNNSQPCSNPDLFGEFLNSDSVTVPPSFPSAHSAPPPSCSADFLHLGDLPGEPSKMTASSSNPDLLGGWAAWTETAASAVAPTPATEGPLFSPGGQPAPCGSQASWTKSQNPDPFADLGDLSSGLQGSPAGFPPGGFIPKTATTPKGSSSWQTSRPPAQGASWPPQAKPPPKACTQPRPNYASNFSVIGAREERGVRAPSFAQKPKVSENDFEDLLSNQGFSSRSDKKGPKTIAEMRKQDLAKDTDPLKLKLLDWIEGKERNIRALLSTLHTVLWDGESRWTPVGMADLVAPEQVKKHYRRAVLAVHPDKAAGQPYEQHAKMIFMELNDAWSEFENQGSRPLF

The target of assay [3] is Protein kinase C delta type (Homo sapiens, UniProt Q05655).
Sequence of Protein kinase C delta type (Q05655 whole entry): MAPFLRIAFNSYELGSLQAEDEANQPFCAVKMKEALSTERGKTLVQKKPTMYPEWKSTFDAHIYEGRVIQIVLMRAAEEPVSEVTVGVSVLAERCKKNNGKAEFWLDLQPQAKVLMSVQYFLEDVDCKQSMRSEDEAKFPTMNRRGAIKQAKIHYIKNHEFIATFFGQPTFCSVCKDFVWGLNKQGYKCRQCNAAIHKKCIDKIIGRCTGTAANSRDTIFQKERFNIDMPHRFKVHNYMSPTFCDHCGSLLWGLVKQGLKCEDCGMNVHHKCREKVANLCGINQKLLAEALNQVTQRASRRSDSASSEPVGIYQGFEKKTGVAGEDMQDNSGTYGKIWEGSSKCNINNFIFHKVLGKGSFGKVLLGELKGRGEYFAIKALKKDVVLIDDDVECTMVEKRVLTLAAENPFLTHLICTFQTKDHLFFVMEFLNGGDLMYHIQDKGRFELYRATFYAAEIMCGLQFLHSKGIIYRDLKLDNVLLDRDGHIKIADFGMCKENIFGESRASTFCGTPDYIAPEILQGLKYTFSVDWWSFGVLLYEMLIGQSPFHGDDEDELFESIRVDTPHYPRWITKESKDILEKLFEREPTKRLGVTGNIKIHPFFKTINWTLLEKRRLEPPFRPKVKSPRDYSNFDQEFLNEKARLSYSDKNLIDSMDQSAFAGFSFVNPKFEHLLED
The target of assay [4] is Structural maintenance of chromosomes protein 2 (Homo sapiens, UniProt O95347).
Sequence of Structural maintenance of chromosomes protein 2 (O95347 whole entry): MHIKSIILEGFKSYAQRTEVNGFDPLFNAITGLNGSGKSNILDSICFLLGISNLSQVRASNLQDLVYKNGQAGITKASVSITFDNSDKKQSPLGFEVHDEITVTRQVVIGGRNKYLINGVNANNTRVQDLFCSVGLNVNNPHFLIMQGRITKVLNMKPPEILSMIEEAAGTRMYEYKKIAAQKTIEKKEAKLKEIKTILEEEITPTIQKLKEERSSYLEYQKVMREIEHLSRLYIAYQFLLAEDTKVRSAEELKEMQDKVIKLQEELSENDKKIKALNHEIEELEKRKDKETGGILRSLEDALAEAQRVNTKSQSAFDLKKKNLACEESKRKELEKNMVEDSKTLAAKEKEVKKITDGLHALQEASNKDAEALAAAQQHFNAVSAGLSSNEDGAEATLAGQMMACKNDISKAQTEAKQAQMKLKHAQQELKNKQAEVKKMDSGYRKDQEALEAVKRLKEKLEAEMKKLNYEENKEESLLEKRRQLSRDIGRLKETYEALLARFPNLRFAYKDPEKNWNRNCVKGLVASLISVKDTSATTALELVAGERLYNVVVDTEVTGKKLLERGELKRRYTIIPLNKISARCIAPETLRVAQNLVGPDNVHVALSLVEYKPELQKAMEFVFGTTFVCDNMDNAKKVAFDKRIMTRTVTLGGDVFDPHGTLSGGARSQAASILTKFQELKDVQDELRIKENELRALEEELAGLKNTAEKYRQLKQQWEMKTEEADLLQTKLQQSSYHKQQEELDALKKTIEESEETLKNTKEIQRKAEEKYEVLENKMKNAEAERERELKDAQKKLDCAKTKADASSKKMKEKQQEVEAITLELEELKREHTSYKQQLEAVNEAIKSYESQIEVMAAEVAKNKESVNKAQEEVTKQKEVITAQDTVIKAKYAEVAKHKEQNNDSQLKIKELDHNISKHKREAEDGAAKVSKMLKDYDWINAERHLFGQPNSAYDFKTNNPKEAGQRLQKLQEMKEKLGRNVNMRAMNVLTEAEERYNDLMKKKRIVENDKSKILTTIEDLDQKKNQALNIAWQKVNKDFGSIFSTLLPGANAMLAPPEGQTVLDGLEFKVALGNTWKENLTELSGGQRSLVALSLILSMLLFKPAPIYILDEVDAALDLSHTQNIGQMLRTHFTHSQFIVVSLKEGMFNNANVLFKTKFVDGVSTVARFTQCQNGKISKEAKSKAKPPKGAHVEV
The target of assay [5] is Tyrosine-protein kinase Yes (Homo sapiens, UniProt P07947).
Sequence of Tyrosine-protein kinase Yes (P07947 whole entry): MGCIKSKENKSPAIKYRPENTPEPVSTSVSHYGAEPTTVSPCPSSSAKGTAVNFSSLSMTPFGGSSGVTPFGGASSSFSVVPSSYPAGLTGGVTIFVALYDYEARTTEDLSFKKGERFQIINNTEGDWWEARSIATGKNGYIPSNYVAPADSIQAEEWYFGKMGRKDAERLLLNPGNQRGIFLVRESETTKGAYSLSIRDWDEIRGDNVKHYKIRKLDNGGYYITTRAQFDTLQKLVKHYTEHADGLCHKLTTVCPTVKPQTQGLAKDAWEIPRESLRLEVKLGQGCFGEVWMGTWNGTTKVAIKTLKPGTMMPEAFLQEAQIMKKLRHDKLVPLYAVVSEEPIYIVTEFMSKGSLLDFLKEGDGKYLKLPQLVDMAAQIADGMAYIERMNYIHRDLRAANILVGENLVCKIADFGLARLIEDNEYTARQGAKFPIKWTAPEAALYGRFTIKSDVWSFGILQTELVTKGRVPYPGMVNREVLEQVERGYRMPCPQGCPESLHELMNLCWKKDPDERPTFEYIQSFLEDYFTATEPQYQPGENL
The target in assay [6] is Calcium/calmodulin-dependent protein kinase kinase 2 (Homo sapiens, UniProt Q96RR4).
Sequence of Calcium/calmodulin-dependent protein kinase kinase 2 (Q96RR4 whole entry): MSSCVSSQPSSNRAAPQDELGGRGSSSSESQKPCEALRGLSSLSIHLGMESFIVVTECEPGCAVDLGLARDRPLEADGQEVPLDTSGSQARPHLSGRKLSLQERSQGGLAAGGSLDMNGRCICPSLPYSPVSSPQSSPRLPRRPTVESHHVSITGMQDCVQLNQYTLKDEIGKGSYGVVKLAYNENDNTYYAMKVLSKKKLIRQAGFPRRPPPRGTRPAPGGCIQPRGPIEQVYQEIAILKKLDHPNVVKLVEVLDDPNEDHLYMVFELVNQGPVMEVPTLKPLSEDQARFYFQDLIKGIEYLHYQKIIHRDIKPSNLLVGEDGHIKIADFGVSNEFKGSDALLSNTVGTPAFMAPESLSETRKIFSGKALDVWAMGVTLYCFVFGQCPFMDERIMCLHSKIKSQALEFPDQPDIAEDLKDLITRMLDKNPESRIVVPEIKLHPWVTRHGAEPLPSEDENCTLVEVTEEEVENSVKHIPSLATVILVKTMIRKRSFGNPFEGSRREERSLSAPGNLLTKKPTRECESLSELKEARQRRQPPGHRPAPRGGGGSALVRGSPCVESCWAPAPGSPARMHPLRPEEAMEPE
Assay [7] concerns the target Tyrosine-protein kinase ABL1 (Homo sapiens, UniProt P00519).
Assay [8] has as its target T3, Serine/threonine-protein kinase Nek2 (Homo sapiens, UniProt P51955).
T3 sequence (P51955 whole entry): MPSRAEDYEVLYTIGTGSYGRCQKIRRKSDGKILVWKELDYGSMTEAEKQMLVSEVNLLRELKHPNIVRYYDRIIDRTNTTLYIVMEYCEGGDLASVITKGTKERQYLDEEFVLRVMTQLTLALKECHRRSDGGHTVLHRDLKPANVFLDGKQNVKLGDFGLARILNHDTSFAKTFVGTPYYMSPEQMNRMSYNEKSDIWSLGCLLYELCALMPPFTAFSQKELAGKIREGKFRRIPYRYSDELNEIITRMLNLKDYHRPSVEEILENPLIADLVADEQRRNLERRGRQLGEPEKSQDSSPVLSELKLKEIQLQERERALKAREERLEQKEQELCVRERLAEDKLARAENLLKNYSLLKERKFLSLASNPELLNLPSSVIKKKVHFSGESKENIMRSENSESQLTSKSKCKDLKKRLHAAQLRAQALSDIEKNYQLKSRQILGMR

Sequence of Tyrosine-protein kinase ABL1 (P00519 whole entry): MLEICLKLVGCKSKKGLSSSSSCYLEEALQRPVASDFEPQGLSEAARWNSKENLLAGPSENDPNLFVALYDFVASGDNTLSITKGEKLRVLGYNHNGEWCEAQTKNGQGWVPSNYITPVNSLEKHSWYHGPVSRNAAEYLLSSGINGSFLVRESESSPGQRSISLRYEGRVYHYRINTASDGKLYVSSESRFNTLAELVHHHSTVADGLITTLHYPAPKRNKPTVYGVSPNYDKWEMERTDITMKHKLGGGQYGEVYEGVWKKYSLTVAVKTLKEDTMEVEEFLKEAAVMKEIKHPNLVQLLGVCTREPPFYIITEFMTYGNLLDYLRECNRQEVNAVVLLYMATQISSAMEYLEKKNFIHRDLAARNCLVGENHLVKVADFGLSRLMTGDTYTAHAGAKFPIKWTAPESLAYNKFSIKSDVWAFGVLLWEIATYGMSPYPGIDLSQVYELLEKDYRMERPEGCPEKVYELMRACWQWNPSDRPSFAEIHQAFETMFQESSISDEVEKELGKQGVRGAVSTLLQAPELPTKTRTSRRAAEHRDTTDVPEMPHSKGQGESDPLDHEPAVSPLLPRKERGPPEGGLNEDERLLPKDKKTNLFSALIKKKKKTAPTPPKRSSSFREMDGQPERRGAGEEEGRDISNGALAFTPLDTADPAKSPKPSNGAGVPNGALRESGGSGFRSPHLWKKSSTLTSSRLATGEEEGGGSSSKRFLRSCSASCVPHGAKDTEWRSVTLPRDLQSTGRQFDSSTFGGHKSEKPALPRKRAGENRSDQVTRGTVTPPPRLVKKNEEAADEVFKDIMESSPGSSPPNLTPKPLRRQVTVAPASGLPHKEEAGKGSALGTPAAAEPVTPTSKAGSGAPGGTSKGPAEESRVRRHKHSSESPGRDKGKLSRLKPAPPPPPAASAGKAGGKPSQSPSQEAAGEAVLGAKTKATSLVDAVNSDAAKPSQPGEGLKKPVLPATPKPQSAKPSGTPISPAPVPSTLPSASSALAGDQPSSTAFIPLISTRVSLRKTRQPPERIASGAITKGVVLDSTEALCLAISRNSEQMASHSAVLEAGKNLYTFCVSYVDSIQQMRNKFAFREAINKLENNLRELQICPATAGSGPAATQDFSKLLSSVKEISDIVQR

By Kd is commonly meant the free concentration of one partner at which half of the binding sites on the other are occupied at equilibrium, for simple one-to-one binding. `CCN(CCCOc1ccc2c(Nc3cc(CC(=O)Nc4cccc(F)c4)n[nH]3)ncnc2c1)CCOP(=O)(O)O` [BARASERTIB]: the Kd in assay [1], in assay [2], in assay [3], in assay [4] and in assay [5] was > 30 µM (inactive) in each case.

On to `C=CCn1c(=O)c2cnc(Nc3ccc(N4CCN(C)CC4)cc3)nc2n1-c1cccc(C(C)(C)O)n1` [ADAVOSERTIB], for which the Kd is > 30 µM (inactive) in assay [1]; > 30 µM (inactive) in assay [6]; 0.418 µM (active) in assay [2]; > 30 µM (inactive) in assay [3]; > 30 µM (inactive) in assay [4]; > 30 µM (inactive) in assay [5].

`COc1cc2c(N3CCN(C(=O)Nc4ccc(OC(C)C)cc4)CC3)ncnc2cc1OCCCN1CCCCC1` [TANDUTINIB]: the Kd in assay [1] and in assay [4] was > 30 µM (inactive) throughout.

For the compound `COc1cc2c(Oc3ccc4[nH]c(C)cc4c3F)ncnc2cc1OCCCN1CCCC1` [CEDIRANIB], the Kd in assay [1] and in assay [4] was > 30 µM (inactive) throughout.

By pKd is commonly meant −log10 of the Kd, conventionally taken in molar units. Turning to `Cn1cnc2c(F)c(Nc3ccc(Br)cc3Cl)c(C(=O)NOCCO)cc21` [SELUMETINIB], in assay [1], the Kd is > 30 µM (inactive). For the same compound, in assay [4], the pKd is 6.68.

As for `Cc1cc(C(=O)Nc2cc(Oc3ccc4nc(NC(=O)C5CC5)cn4n3)ccc2C)n(C)n1` [TAK-593], the Kd in assay [7] was 0.918 µM (active); in assay [1], > 30 µM (inactive); in assay [6], > 30 µM (inactive); in assay [2], > 30 µM (inactive); in assay [8], > 30 µM (inactive); in assay [3], > 30 µM (inactive). Moreover, in assay [4], the Kd was > 30 µM (inactive).

`Cn1cc(-c2[nH]c3cc(NC(=O)[C@H](N)C4CCCCC4)cc4c3c2C=NNC4=O)cn1`: the Kd was > 30 µM (inactive) in assay [1]; > 30 µM (inactive) in assay [6]; 0.023 µM (active) in assay [2]; > 30 µM (inactive) in assay [8]; > 30 µM (inactive) in assay [3]; > 30 µM (inactive) in assay [4]. Also, in assay [5], the Kd was 0.623 µM (active).

Regarding `CC1(COc2ccc3c(c2)ncn3-c2ccc3cccc(N4CCC(N)CC4)c3n2)COC1` [CRENOLANIB], the Kd in assay [7] is > 30 µM (inactive); in assay [1], > 30 µM (inactive); in assay [6], 0.135 µM (active); in assay [2], 2.41 µM (active); in assay [8], > 30 µM (inactive); in assay [4] it was > 30 µM (inactive). For the same compound, in assay [5], the Kd is > 30 µM (inactive).

Turning to `CN(C)C/C=C/C(=O)Nc1cc2c(Nc3ccc(F)c(Cl)c3)ncnc2cc1O[C@H]1CCOC1` [AFATINIB], the Kd in assay [1] and in assay [4] was > 30 µM (inactive) each time.

Consider `CN(c1ncccc1CNc1nc(Nc2ccc3c(c2)CC(=O)N3)ncc1C(F)(F)F)S(C)(=O)=O` [PF-00562271], for which the Kd in assay [1], in assay [2], in assay [4] and in assay [5] was > 30 µM (inactive) in each case.

For `CC(C)(O)CC(=O)NCCn1ccc2ncnc(Nc3ccc(Oc4cccc(C(F)(F)F)c4)c(Cl)c3)c21` [TAK-285], the Kd in assay [7], in assay [1], in assay [6], in assay [2], in assay [8] and in assay [3] was > 30 µM (inactive) in each case. Moreover, the Kd in assay [4] was > 30 µM (inactive).

`CC(C)CC(=O)Nc1[nH]nc2c1CN(C(=O)C1CCN(C)CC1)C2(C)C` [PHA-793887]: the Kd in assay [1], in assay [6], in assay [2], in assay [3], in assay [4] and in assay [5] was > 30 µM (inactive) each time.

As to `CC1(C)CNc2cc(NC(=O)c3cccnc3NCc3ccncc3)ccc21` [MOTESANIB], the Kd in assay [1] and in assay [4] was > 30 µM (inactive) in each case.

In the case of `C[C@@]1(C(=O)Nc2ccc(F)nc2)CCCN1c1nc(Nc2cc(C3CC3)n[nH]2)c2cccn2n1` [BMS-754807], the Kd in assay [1] and in assay [4] was > 30 µM (inactive) each time.

`O=S(=O)(c1cccc2cnccc12)N1CCCNCC1` [FASUDIL]: the Kd in assay [7], in assay [1], in assay [6], in assay [2], in assay [4] and in assay [5] was > 30 µM (inactive) throughout.

Take `N#CCNC(=O)c1ccc(-c2ccnc(Nc3ccc(N4CCOCC4)cc3)n2)cc1` [MOMELOTINIB]: the Kd in assay [1] was > 30 µM (inactive); in assay [6], > 30 µM (inactive); in assay [2] it was 0.822 µM (active); in assay [8], > 30 µM (inactive); in assay [3], > 30 µM (inactive); in assay [4] it was > 30 µM (inactive). Also, the Kd in assay [5] was > 30 µM (inactive).

`O=S(=O)(c1cccc2c(O)nccc12)N1CCCNCC1` [HYDROXYFASUDIL]: the Kd in assay [1], in assay [6], in assay [2], in assay [8], in assay [3] and in assay [4] was > 30 µM (inactive) each time. For the same compound, in assay [5], the Kd was > 30 µM (inactive).

As to `C[C@]1(O)C[C@@H](c2nc(-c3ccc4ccc(-c5ccccc5)nc4c3)c3c(N)nccn32)C1` [LINSITINIB], the Kd in assay [1], in assay [6], in assay [2], in assay [4] and in assay [5] was > 30 µM (inactive) in each case.

Consider `Cn1c(=O)n(-c2ccc(C(C)(C)C#N)cc2)c2c3cc(-c4cnc5ccccc5c4)ccc3ncc21` [DACTOLISIB], for which the Kd in assay [1], in assay [6], in assay [2], in assay [3], in assay [4] and in assay [5] was > 30 µM (inactive) in each case.
